Experimental data: patent publication US20260078135A1, “POLYCYCLIC QUINAZOLINES FOR INHIBITION OF ERBB2” (Enliven Inc., priority 2022, published 2026)

Columns and labels:
Ba/F3 ERBB2 YVMA = Ba/F3 ERBB2 YVMA (Homo sapiens, UniProt P04626, DUP772-775, cells depend on it); assay: Cell viability assay (CellTiter Glo), Ba/F3 cells engineered to express ERBB2 YVMA; assay type: cell-based, mouse; details: Ba/F3 cells expressing human ERBB2 YVMA mutant, 72 hours, read-out: Ba/F3 ERBB2 YVMA, IC50
In short: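 Ba/F3 cells (IL-3-independent via stable retroviral human ERBB2 YVMA) seeded 3000/well and given compound from about 10 μM to 0.51 nM in three-fold steps, DMSO ≤0.1%, 72 h at 37° C. Viability by CellTiter Glo luminescence, normalized to DMSO and media-only controls. Sigmoidal nonlinear fit.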

[1] = target: T1, phosphorylated ERBB2 (pERBB2) (Homo sapiens, UniProt P04626); assay: Detection of phosphorylated ERBB2 (pERBB2) by ELISA in BT-474 cells; assay type: cell-based; details: four hour incubation
T1 construct: endogenous in cells; host or cells: BT-474
T1 sequence (P04626 23-1255): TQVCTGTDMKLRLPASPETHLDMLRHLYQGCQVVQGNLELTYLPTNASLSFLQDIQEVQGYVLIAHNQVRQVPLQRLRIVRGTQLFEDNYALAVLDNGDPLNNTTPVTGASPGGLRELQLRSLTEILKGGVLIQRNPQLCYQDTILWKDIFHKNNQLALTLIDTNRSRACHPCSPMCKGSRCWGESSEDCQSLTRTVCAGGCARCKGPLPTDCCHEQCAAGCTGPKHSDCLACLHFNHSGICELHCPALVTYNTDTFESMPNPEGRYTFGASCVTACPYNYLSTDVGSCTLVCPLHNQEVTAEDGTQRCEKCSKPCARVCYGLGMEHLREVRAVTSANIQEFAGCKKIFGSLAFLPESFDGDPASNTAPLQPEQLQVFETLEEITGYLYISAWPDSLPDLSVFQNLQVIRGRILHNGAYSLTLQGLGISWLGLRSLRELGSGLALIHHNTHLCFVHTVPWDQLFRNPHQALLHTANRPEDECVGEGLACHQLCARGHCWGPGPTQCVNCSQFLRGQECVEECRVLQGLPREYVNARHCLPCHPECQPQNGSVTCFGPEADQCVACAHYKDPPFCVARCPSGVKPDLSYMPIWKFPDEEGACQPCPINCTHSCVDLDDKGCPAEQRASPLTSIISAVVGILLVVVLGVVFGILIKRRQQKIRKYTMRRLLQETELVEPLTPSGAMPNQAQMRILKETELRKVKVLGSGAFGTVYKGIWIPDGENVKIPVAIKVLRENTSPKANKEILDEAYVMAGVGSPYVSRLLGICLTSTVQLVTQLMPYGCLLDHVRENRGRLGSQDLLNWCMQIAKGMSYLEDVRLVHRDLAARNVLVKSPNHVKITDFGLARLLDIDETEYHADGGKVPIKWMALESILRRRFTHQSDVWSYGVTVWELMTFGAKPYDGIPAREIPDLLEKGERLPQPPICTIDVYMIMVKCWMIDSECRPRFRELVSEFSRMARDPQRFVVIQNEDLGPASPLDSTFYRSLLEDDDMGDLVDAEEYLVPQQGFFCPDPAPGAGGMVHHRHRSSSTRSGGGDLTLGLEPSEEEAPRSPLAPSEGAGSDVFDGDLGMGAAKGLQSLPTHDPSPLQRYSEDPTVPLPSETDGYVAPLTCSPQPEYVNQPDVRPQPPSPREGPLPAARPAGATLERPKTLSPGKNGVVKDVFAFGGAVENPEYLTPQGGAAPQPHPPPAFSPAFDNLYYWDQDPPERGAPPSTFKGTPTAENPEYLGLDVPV
In short: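 BT-474 cells were treated with compounds (fourfold dilutions, 10 μM to 0.01 nM final) for 4 h at 37 °C, then lysed. pERBB2 in lysates was quantified by ELISA with an HRP anti-phosphotyrosine detection antibody and TMB read at 450 nm; % relative activity was normalized to no-cell and 0.1% DMSO controls.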

[2] = target: T2, phosphorylated EGFR (pEGFR) (Homo sapiens, UniProt P00533); assay: Detection of phosphorylated EGFR (pEGFR) by AlphaLISA in EGF-stimulated A431 cells; assay type: cell-based; details: A431 cells (10% FBS), 4 hours incubation, EGF 30 ng/mL for 10 minutes
T2 construct: performed to measure phosphorylated EGFR levels using A431 cells (10% FBS); endogenous in cells; host or cells: A431
T2 sequence (P00533 25-1210): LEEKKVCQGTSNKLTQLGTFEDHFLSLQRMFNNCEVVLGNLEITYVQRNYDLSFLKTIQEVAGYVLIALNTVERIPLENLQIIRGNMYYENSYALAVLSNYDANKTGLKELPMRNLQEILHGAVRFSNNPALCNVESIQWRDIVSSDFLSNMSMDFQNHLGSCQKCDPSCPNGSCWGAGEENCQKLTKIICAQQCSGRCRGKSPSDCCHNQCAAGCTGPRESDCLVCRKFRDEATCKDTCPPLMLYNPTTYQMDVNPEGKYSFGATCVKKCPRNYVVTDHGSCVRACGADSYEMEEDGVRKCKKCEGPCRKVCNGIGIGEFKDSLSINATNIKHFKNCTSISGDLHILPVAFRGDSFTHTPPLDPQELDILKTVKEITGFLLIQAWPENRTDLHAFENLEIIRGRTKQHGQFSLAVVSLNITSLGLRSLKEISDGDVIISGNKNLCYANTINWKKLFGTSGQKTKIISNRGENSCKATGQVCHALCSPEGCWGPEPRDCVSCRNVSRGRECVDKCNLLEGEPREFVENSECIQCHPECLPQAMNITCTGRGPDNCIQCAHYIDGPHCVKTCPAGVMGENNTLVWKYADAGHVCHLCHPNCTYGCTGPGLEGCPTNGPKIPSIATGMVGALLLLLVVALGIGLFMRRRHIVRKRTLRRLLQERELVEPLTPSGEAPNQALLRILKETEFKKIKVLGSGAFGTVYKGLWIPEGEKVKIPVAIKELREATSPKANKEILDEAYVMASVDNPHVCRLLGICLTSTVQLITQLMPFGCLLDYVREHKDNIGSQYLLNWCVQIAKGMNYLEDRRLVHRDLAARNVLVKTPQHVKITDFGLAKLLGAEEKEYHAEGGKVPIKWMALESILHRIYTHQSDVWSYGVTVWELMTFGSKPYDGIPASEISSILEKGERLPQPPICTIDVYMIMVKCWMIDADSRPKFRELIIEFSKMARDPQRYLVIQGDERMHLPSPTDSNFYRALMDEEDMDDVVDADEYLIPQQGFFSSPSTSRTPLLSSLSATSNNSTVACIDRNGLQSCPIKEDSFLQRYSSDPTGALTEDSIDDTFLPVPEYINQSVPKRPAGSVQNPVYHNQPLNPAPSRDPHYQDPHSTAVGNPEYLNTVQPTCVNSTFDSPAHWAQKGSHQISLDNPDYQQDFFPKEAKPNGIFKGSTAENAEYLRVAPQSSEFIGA
In short: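 pEGFR was quantified by AlphaLISA in lysates of A431 cells (10% FBS) given a 10 min pulse of EGF at 30 ng/mL after 4 h compound exposure at 37 °C. IC50 came from a four-parameter fit of % inhibition between DMSO and staurosporine controls.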

Sequence of Ba/F3 ERBB2 YVMA (P04626 with tags, fused parts or gaps DUP772-775): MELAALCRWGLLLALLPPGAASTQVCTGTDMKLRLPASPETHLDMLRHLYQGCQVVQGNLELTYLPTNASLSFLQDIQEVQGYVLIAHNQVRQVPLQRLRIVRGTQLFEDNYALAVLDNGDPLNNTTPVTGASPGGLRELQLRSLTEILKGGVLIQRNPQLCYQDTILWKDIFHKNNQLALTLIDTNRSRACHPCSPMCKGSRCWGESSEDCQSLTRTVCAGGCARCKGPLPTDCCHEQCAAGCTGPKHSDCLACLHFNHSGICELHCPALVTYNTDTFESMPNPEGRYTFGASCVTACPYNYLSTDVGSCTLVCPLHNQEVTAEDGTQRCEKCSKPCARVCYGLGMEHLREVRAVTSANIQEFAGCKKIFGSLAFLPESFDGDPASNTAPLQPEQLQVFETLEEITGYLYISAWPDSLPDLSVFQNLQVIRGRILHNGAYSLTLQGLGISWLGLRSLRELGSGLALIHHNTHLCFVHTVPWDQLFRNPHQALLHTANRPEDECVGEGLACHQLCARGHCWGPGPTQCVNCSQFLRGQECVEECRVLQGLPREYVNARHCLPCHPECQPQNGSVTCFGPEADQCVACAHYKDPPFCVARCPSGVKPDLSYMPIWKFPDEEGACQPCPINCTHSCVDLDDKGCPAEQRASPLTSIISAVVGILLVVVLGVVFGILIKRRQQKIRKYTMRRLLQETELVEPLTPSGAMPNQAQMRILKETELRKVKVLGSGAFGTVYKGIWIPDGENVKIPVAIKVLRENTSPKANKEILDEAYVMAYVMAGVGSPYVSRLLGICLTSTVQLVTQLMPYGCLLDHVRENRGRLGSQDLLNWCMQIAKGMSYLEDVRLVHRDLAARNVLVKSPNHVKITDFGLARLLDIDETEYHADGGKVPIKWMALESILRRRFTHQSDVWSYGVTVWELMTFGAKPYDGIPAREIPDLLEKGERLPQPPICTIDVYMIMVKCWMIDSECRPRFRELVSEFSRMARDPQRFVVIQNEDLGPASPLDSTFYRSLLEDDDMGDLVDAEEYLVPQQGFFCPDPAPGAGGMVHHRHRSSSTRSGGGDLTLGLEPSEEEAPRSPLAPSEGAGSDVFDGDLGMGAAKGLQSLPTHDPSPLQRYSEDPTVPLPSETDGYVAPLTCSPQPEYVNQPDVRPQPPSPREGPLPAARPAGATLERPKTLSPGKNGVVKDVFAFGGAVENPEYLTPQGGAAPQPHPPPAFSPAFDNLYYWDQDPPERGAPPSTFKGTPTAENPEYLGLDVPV

SMILES	IC50 [1] [nM]	IC50 [2] [nM]	GI50 (Ba/F3 ERBB2 YVMA) [nM]
Cc1cc(Nc2ncnc3ccc4c(c23)OC[C@H]2CN4CCN2C(=O)/C=C/[C@H](C)N(C)C)ccc1Oc1ccn2ncnc2c1 [Compound 89, (4S,E)-1-((3R)-13-((4-([1,2,4]triazolo[1,5-a]pyridin-7-yloxy)-3-methylphenyl)amino)-2,3,5,6-tetrahydro-4H-3,7-methano[1,4,7]oxadiazonino[2,3-f]quinazolin-4-yl)-4-(dimethylamino)pent-2-en-1-one]	172	> 10000	264
Cc1cc(Nc2ncnc3ccc4c(c23)OC[C@H]2CN4CCN2C(=O)/C=C/[C@@H](C)N(C)C)c(F)cc1Oc1ccn2ncnc2c1 [Compound 90, (4R,E)-1-((3R)-13-((4-([1,2,4]triazolo[1,5-a]pyridin-7-yloxy)-2-fluoro-5-methylphenyl)amino)-2,3,5,6-tetrahydro-4H-3,7-methano[1,4,7]oxadiazonino[2,3-f]quinazolin-4-yl)-4-(dimethylamino)pent-2-en-1-one]	50.4	> 10000	28.7
Cc1cc(Nc2ncnc3ccc4c(c23)OC[C@H]2CN4CCN2C(=O)/C=C/[C@H](C)N(C)C)c(F)cc1Oc1ccn2ncnc2c1 [Compound 91, (4S,E)-1-((3R)-13-((4-([1,2,4]triazolo[1,5-a]pyridin-7-yloxy)-2-fluoro-5-methylphenyl)amino)-2,3,5,6-tetrahydro-4H-3,7-methano[1,4,7]oxadiazonino[2,3-f]quinazolin-4-yl)-4-(dimethylamino)pent-2-en-1-one triformate]	147	> 10000	164
CN(C)C/C=C/C(=O)N1CCN2C[C@@H]1COc1c2ccc2ncnc(Nc3cc(F)c(Oc4ccn5ncnc5c4)cc3F)c12 [Compound 96, (E)-1-((3R)-13-((4-([1,2,4]triazolo[1,5-a]pyridin-7-yloxy)-2,5-difluorophenyl)amino)-2,3,5,6-tetrahydro-4H-3,7-methano[1,4,7]oxadiazonino[2,3-f]quinazolin-4-yl)-4-(dimethylamino)but-2-en-1-one]	19.1	221	9.12
Cc1cc(Nc2ncnc3cnc4c(c23)OC[C@@H]2CN(C(=O)/C=C/CN(C)C)CCN42)ccc1Oc1ccn2ncnc2c1 [Compound 112, (S,E)-1-(4-((4-([1,2,4]triazolo[1,5-a]pyridin-7-yloxy)-3-methylphenyl)amino)-6a,7,9,10-tetrahydropyrazino[1,2-d]pyrimido[5′,4′:4,5]pyrido[3,2-b][1,4]oxazin-8(6H)-yl)-4-(dimethylamino)but-2-en-1-one]	21.8	1170	13.3
Cc1cc(Nc2ncnc3cnc4c(c23)OC[C@H]2CN(C(=O)/C=C/CN(C)C)CCN42)ccc1Oc1ccn2ncnc2c1 [Compound 113, (R,E)-1-(4-((4-([1,2,4]triazolo[1,5-a]pyridin-7-yloxy)-3-methylphenyl)amino)-6a,7,9,10-tetrahydropyrazino[1,2-d]pyrimido[5′,4′:4,5]pyrido[3,2-b][1,4]oxazin-8(6H)-yl)-4-(dimethylamino)but-2-en-1-one]	11.3	593	3.57
Cc1cc(Nc2ncnc3ccc4c(c23)OC[C@@H]2CN(C(=O)/C=C/C3CN(C)C3)CCN42)ccc1Oc1ccn2ncnc2c1 [Compound 114, (S,E)-1-(4-((4-([1,2,4]triazolo[1,5-a]pyridin-7-yloxy)-3-methylphenyl)amino)-6a,7,9,10-tetrahydropyrazino[1′,2′:4,5][1,4]oxazino[2,3-f]quinazolin-8(6H)-yl)-3-(1-methylazetidin-3-yl)prop-2-en-1-one formic acid]	43.1	> 10000	172
CN(C)C/C=C/C(=O)N1CCN2c3ncc4ncnc(Nc5cc(F)c(Oc6ccn7ncnc7c6)cc5F)c4c3OC[C@H]2C1 [Compound 115, (R,E)-1-(4-((4-([1,2,4]triazolo[1,5-a]pyridin-7-yloxy)-2,5-difluorophenyl)amino)-6a,7,9,10-tetrahydropyrazino[1,2-d]pyrimido[5′,4′:4,5]pyrido[3,2-b][1,4]oxazin-8(6H)-yl)-4-(dimethylamino)but-2-en-1-one]	30.2	4770	7.22

Second part, led by results:

IC50 [1] [nM]	IC50 [2] [nM]	SMILES	GI50 (Ba/F3 ERBB2 YVMA) [nM]
20.8	2160	Cc1cc(Nc2ncnc3ccc4c(c23)OC[C@@H]2CN(C(=O)/C=C/CN(C)C)CCN42)c(F)cc1Oc1ccn2ncnc2c1 [Compound 92, (S,E)-1-(4-((4-([1,2,4]triazolo[1,5-a]pyridin-7-yloxy)-2-fluoro-5-methylphenyl)amino)-6a,7,9,10-tetrahydropyrazino[1′,2′:4,5][1,4]oxazino[2,3-f]quinazolin-8(6H)-yl)-4-(dimethylamino)but-2-en-1-one]	18
18.1	308	Cc1c(Oc2ccn3ncnc3c2)ccc(Nc2ncnc3ccc4c(c23)OC[C@@H]2CN(C(=O)/C=C/CN(C)C)CCN42)c1F [Compound 93, (S,E)-1-(4-((4-([1,2,4]triazolo[1,5-a]pyridin-7-yloxy)-2-fluoro-3-methylphenyl)amino)-6a,7,9,10-tetrahydropyrazino[1′,2′:4,5][1,4]oxazino[2,3-f]quinazolin-8(6H)-yl)-4-(dimethylamino)but-2-en-1-one]	7.75
19.6	2160	CN(C)C/C=C/C(=O)N1CCN2c3ccc4ncnc(Nc5ccc(Oc6ccn7ncnc7c6)c(F)c5)c4c3OC[C@@H]2C1 [Compound 94, (S,E)-1-(4-((4-([1,2,4]triazolo[1,5-a]pyridin-7-yloxy)-3-fluorophenyl)amino)-6a,7,9,10-tetrahydropyrazino[1′,2′:4,5][1,4]oxazino[2,3-f]quinazolin-8(6H)-yl)-4-(dimethylamino)but-2-en-1-one]	19.9
32.3	2780	CN(C)C/C=C/C(=O)N1CCN2c3ccc4ncnc(Nc5ccc(Oc6ccn7ncnc7c6)cc5F)c4c3OC[C@@H]2C1 [Compound 95, (S,E)-1-(4-((4-([1,2,4]triazolo[1,5-a]pyridin-7-yloxy)-2-fluorophenyl)amino)-6a,7,9,10-tetrahydropyrazino[1′,2′:4,5][1,4]oxazino[2,3-f]quinazolin-8(6H)-yl)-4-(dimethylamino)but-2-en-1-one]	19.6
15.2	8060	CN(C)C/C=C/C(=O)N1CCN2c3ccc4ncnc(Nc5cc(F)c(Oc6ccn7ncnc7c6)cc5F)c4c3OC[C@H]2C1 [Compound 97, (R,E)-1-(4-((4-([1,2,4]triazolo[1,5-a]pyridin-7-yloxy)-2,5-difluorophenyl)amino)-6a,7,9,10-tetrahydropyrazino[1′,2′:4,5][1,4]oxazino[2,3-f]quinazolin-8(6H)-yl)-4-(dimethylamino)but-2-en-1-one]	3.6
60	> 10000	CN(C)C/C=C/C(=O)N1CCN2c3ccc4ncnc(Nc5cc(F)c(Oc6ccn7ncnc7c6)cc5F)c4c3OC[C@@H]2C1 [Compound 98, (S,E)-1-(4-((4-([1,2,4]triazolo[1,5-a]pyridin-7-yloxy)-2,5-difluorophenyl)amino)-6a,7,9,10-tetrahydropyrazino[1′,2′:4,5][1,4]oxazino[2,3-f]quinazolin-8(6H)-yl)-4-(dimethylamino)but-2-en-1-one]	16.6
10.9	572	Cc1cc(Nc2ncnc3ccc4c(c23)OC[C@H]2CN(C(=O)/C=C/CN(C)C)CCN42)c(F)cc1Oc1ccn2ncnc2c1 [Compound 116, (R,E)-1-(4-((4-([1,2,4]triazolo[1,5-a]pyridin-7-yloxy)-2-fluoro-5-methylphenyl)amino)-6a,7,9,10-tetrahydropyrazino[1′,2′:4,5][1,4]oxazino[2,3-f]quinazolin-8(6H)-yl)-4-(dimethylamino)but-2-en-1-one]	14
13.1	1510	Cc1cc(Nc2ncnc3cnc4c(c23)OC[C@H]2CN(C(=O)/C=C/CN(C)C)CCN42)c(F)cc1Oc1ccn2ncnc2c1 [Compound 117, (R,E)-1-(4-((4-([1,2,4]triazolo[1,5-a]pyridin-7-yloxy)-2-fluoro-5-methylphenyl)amino)-6a,7,9,10-tetrahydropyrazino[1,2-d]pyrimido[5′,4′:4,5]pyrido[3,2-b][1,4]oxazin-8(6H)-yl)-4-(dimethylamino)but-2-en-1-one]	6.57
25	3120	CN(C)C/C=C/C(=O)N1CCN2c3ccc4ncnc(Nc5ccc(Oc6ccn7ncnc7c6)c(F)c5)c4c3OC[C@H]2C1 [Compound 118, (R,E)-1-(4-((4-([1,2,4]triazolo[1,5-a]pyridin-7-yloxy)-3-fluorophenyl)amino)-6a,7,9,10-tetrahydropyrazino[1′,2′:4,5][1,4]oxazino[2,3-f]quinazolin-8(6H)-yl)-4-(dimethylamino)but-2-en-1-one]	35.7
